Source: PMC10289085, “The cytotoxicity effect of 7-hydroxy-3,4-dihydrocadalene from Heterotheca inuloides and semisynthetic cadalenes derivates towards breast cancer cells: involvement of oxidative stress-mediated apoptosis” (PeerJ, 2023)
“Also recorded” adds a separate entry of the source.

Tests used:
[1] = tested on: MCF7 human breast cancer cells; assay: MTT assay: cell viability; type: cell-based; settings: for MCF7 cell viability: 0.1 to 100 µM, 24, 48 and 72 h; for IC50: MCF7, MTT
Experimental: MCF7 (#HTB-22) cell line, derived from human breast adenocarcinoma, was obtained from the American Type Culture Collection (ATCC®, Manassas, VA, USA). It was maintained under standard conditions: RPMI-1640, 2.0 g/L NaHCO3, supplemented with 10% FBS and gentamicin […].
(§1) Cells were treated with isolated compounds (0.1, 1, 5, 10, 25, 50 and 100 µM) for 24, 48 and 72 h. After treatments, culture media was replaced by MTT (100 μL) dissolved in RPMI media (0.33 mg/mL final concentration) per well and incubated at 37 °C with 5% CO2 for 1 h in dark. After incubating, supernatant was removed and replaced with DMSO to dissolve formazan crystals. Absorbance value was measured in a microplate reader (SPECTROstar Nano; BMG Labtech, Ortenberg, Germany) at 570 nm. IC25 and IC50 values were determined using GraphPad Prism 7.00 (GraphPad Software, La Jolla, CA, USA). Percentage of cell viability was calculated in comparison with control cells ([Mosmann, 1983]).

MCF7 cell line = tested on: MCF7 cell line; parameters: method as in Rodríguez-Chávez et al. (2015b); settings: ref Rodríguez-Chávez et al. (2015b); cited from earlier work
Bcl-2 = assay: Immunoblotting of Bcl-2; type: cell-based, human; settings: MCF7, 48 h, IC50 and IC50/2
Experimental: (§2) Western blot assays were performed using standard techniques. Primary antibodies were anti-caspase-3, Bcl-2 and GAPDH from Santa Cruz Biotechnology (Santa Cruz Biotechnology, Inc., Dallas, TX, USA). The secondary antibody was anti-rabbit IgG, HRP-linked (Antibody #7074; Cell Signaling Technology, Danvers, MA, USA).

MCF7 cells [2] = assay: Wound-healing assay: cell migration; type: cell-based, human; settings: IC50 (55.24 μM), 24, 48 and 72 h
Experimental: Wound areas were monitored at four different times (0, 24, 48, and 72 h) using the Cytation 5 cell imager (BioTek Instruments, Inc., Winooski, VT, USA). To determine the migration rate of the cells, the wound areas were quantified using the ImageJ software, ([Schneider, Rasband & Eliceiri, 2012]). The variation between the percentage of cell migration (as a function of time) was calculated using the following formula:
%Migration=100−[(Areaofinjurytimet/Areaofinjurytimezero)(100)]

[3] = tested on: mitochondrial respiration of MCF7 cells; assay: Cell respirometry (high resolution, O2k); type: cell-based, human; settings: MCF7, IC50, 48 h
Experimental: The oxygen consumption experiments were performed using a high resolution respirometry equipment O2k meter (Oroboros Instruments, Innsbruck, Austria) described by [Aparicio-Trejo et al. (2019)]. The respiratory parameters were defined as: (A) Routine respiration, corresponding to oxygen consumption in presence only of cells in culture medium. (B) Leak of the respiration, corresponding to cellular oxygen consumption in presence of 15 μM oligomycin. (C) RCI corresponding to the ratio basal/leak. (D) Respiration attributable to OXPHOS (P) corresponding to: Routine-Leak. All parameters were corrected by subtracting non-mitochondrial respiration resulting from the addition of 15 μM rotenone and 15 μM antimycin A and normalized by cells number.

[4] = tested on: intracellular ROS in MCF7 cells; assay: DCFH-DA assay: intracellular ROS detection; type: cell-based, human; settings: compound at IC50 concentration, H2O2 1 mM
Experimental: Intracellular ROS were detected by fluorescent compound DCFH-DA. Cells were treated with 1.0 mM H2O2, IC50 (55.2 μM) and IC50/2 (27.6 μM) of 7-hydroxy-3,4-dihydrocadalene for 48 h. Then, culture media was replaced with DCFH-DA (20 μM dissolved in glucose 1.8 mg/mL PBS) per well and incubated in the dark for 30 min. DCF fluorescence intensity was measured using an FLx800 microplate fluorescence reader (Bio-Tek Instruments, Inc., Winooski, VT, USA) at 480 and 530 nm excitation and emission wavelengths, respectively ([LeBel, Ischiropoulos & Bondy, 1992]).

MCF7 cells [5] = assay: Cell morphology (Cytation 5 imaging); type: cell-based, human; settings: MCF7, 48 h; compound at IC50, H2O2 1 mM
caspase-3 = assay: Caspase-3 activity assay (fluorometric, cell lysates); type: cell-based, human; settings: MCF7, 48 h
Experimental: (§3) Mechanical scraping was employed to collect adherent MCF7 cells after treatments. Then, cells were centrifugated (1,500 rpm for 5 min at 37 °C) and supernatants were removed. Pellets were lyzed adding lysis buffer (25 mM TrisHCl, pH 7.4, 150 mM NaCl, 1 mM EDTA, 0.1% Triton X-100, 1 mg/mL leupeptin, 0.5 mM PMSF and 1 mg/mL pepstatin) and put on ice for 20 min. Finally, cell lysates were centrifugated (2,500 rpm for 10 min at 4 °C) and supernatants were collected to following assays.
(§4) Fluorometric assays of caspase-3 and caspase-9 enzymes were performed in accordance with the instructions provided by ALEXIS Biochemicals kits (Enzo Life Sciences Inc., San Diego, CA, USA). This enzymatic assay was based on hydrolysis of the peptide substrates of caspases-3/9 (Ac-DEVD 20 μM and Ac-LEHD 20 μM, respectively) conjugated to a fluorochrome (7-amido-4-methylcoumarin or AMC) at the terminal carbon of Asp, resulting in the release of the fluorescent motif. Cell lysates (20 μg) were used for each treatment. After incubation for 1 h at 37 °C, fluorescence was determined using a FLx800 microplate reader at excitation and emission wavelengths of 380 and 460 nm, respectively.

[6] = tested on: lipid peroxidation in MCF7 cells; assay: TBARS assay: lipid peroxidation; type: cell-based, human; settings: MCF7, 48 h
Experimental: as §3
Total protein concentrations were measured as described by [Smith et al. (1985)]. BCA/CuSO4 reactive solution (1:20) was added to each cell lysates and incubated in the dark for 30 min at 37 °C. Absorbance was measured with a SPECTROstar Nano microplate reader (BMG Labtech, Ortenberg, Germany) at a wavelength of 550 nm.
Lipid peroxidation was measured colorimetrically as described by [Uchiyama & Mihara (1978)]. Cell pellets, stored at −80 °C, were thawed at room temperature and then, they were homogenized in thiobarbituric acid reactive substances (TBARS) solution (28.2 mM 2-TBA in 18.5 mL of TCA 16%-HCl 0.27 N). Then, the mixtures were heated for 10 min at 100 °C, and subsequently cooled in ice to stop the reaction. Supernatants of each sample were separated by centrifugation (3,000 rpm for 10 min at 4 °C) and immediately loaded into a SPECTROstar Nano microplate reader (BMG Labtech, Ortenberg, Germany) for absorbance measurement at 530 nm. TBARS values were expressed as nmol/mg protein.

caspase 3 = assay: Immunoblotting of caspase 3; type: cell-based, human; settings: MCF7, 48 h; compound at IC50 concentration, H2O2 1.0 mM
Experimental: as §2

HEK 293 cells = assay: MTT assay: cell viability in non-tumoral control cells; type: cell-based, human; settings: non-tumoral cells from kidney, 72 h
Experimental: HEK 293 (CRL-1573) cell line, human embryonic kidney, was obtained from ATCC® (Manassas, VA, USA). It was grown in DMEM medium (Caisson Laboratories, Inc., Smithfield, UT, USA) with 10% v/v phenol red of inactivated FBS, 44 mM NaHCO3, 1 mM sodium pyruvate and penicillin 100 I.U.−100 μg/mL streptomycin−25 ng/mL amphotericin B, pH 7.4. Both cell lines were incubated at 37 °C and 5% CO2.
as §1

caspase-9 = assay: Caspase-9 activity assay (fluorometric, cell lysates); type: cell-based, human; settings: MCF7, 48 h; for Caspase 9 activity compared to control cells: compound at IC50, H2O2 1.0 mM
Experimental: as §3, §4

MCF7 cells [7] = assay: Trypan blue dye exclusion assay: cell proliferation; type: cell-based, human; settings: IC50 (55.24 μM)
Experimental: Cells were trypsinized, centrifuged and stained with trypan blue dye (0.4% w/v in PBS). The number of viable cells and dead cells were counted on a Neubauer hemocytometer under an inverted microscope. The percentage of cell proliferation was calculated by comparing with control cells.

[8] = compound at IC50 concentration, H2O2 1.0 mM

SMILES: Cc1cc2c(C(C)C)ccc(C)c2cc1OC(=O)Nc1ccccc1 [7-(phenylcarbamate)-cadalene]
- MCF7 cell viability ([1]; MTT): lower or null cytotoxic potential; also recorded: not cytotoxic
- MCF7 cell growth ([1]; MTT, 10 and 50 µM at 72 h of exposure): slightly inhibited MCF7 cell growth

SMILES: CC1=CC[C@H](C(C)C)c2cc(C)c(OC(=O)Nc3ccccc3)cc21 [7-(phenylcarbamate)-3,4-dihydrocadalene]
- MCF7 cell viability ([1]; MTT): did not show a clear trend of MCF7 cell viability reduction; also recorded: lower or null cytotoxic potential; also recorded: not cytotoxic

SMILES: CC1=CC[C@H](C(C)C)c2cc(C)c(O)cc21 [7-hydroxy-3,4-dihydrocadalene]
- IC50 (MCF7 cell line): 61.4 µM
- Bcl-2 levels (Western blot) (Bcl-2): Slightly differences of Bcl-2 levels were observed but not significant
- IC50 ([1]; Homo sapiens, 48 h): 55.2 µM
- IC50 ([1]; Homo sapiens, 72 h): 52.8 µM
- MCF7 cell viability ([1]; MTT): reduced MCF7 cell viability in a concentration and time-dependent manner
- MCF7 migration (MCF7 cells [2]): significantly inhibits MCF7 migration
- RCI [3]: slightly reduction
- Intracellular ROS levels compared to control cells [4]: 182%
- Cell morphology (MCF7 cells [5]): morphological changes (cells are rounded off, adhesion capacity decreases, and membrane is blebbing) were observed
- Caspase 3 activity (caspase-3; IC50/2 concentration): no effect
- Lipid peroxidation levels (TBARS) ([6]; IC50/2): 0.23 nmol/mg protein
- Lipid peroxidation levels (TBARS) [6, 8]: 0.52 nmol/mg protein
- Expression of caspase 3 (Western blot) (caspase 3): more evident
- Effect on HEK 293 cell viability (HEK 293 cells): without effect
- Caspase 9 activity (caspase-9; IC50/2 concentration): no effect
- Caspase 9 activity compared to control cells (caspase-9): 118.42%
- Cell proliferation (MCF7 cells [7]): significantly reduced cell proliferation in a concentration and time dependent manner

SMILES: CC/C(=C(\c1ccc(O)cc1)c1ccc(OCCN(C)C)cc1)c1ccccc1 [(Z)-4-hydroxytamoxifen, reference compound]
- IC50 ([1]; 24 h, positive control): 16.5 µM

SMILES: OO [H2O2, hydrogen peroxide, reference compound]
- Intracellular ROS levels compared to control cells [4]: 194.9%
- Cell morphology (MCF7 cells [5]): morphological changes (cells are rounded off, adhesion capacity decreases, and membrane is blebbing) were observed
- Caspase 3 activity compared to control cells (caspase-3; compound at IC50, H2O2 1.0 mM): 136.25%
- Lipid peroxidation levels (TBARS) [6, 8]: 0.24 nmol/mg protein
- Expression of caspase 3 (Western blot) (caspase 3): increased
- Caspase 9 activity compared to control cells (caspase-9): 115.08%
